# In US20260069621A1, “Pentagalloyl glucose (PGG) for use in treatment of pulmonary hypertension” (Charité - Universitaetsmedizin Berlin, priority 2021, published 2026):
# Experiments:
# [1] = system: human PAs; test: Ex vivo culture of human PAs with or without elastase, EVG staining of elastic fibers
# Procedure: Effects of PGG on PA biomechanics. The effect of PGG on PA biomechanical properties was assessed by ex vivo culture of PA specimens followed by uniaxial tensile testing. Freshly isolated PAs were handled under sterile conditions. One piece of the artery was excised and directly underwent uniaxial tensile testing to record PA biomechanics at baseline. The rest of the PA was prepared as 2×8-mm strips and placed in a 12-well plate for ex vivo culture in serum-free Dulbecco's modified Eagle's medium (DMEM, Gibco) supplied with penicillin-streptomycin (Thermo Fisher) at 37° C. with controlled humidity at 21% O2 and 5% CO2. PGG (penta-O-galloyl-β-D-glucose hydrate, Sigma-Aldrich) was dissolved in dimethyl sulfoxide (DMSO, Sigma-Aldrich) as a stock solution and added to the medium at a final concentration of 0.1%. […] The following four treatment conditions were tested: control, elastase only, PGG only and PGG prior to elastase. PGG treatment was performed for 1 h at 37° C. prior to culturing PAs for 24 h in the presence or absence of elastase. Control samples were incubated with the corresponding concentrations of DMSO. Histology. Human or rat PA samples were cryo-embedded in OCT Compound (Tissue-Tek) and sliced into 10 μm transverse sections on a Microm HM560 cryostat. […] EVG staining was quantified based on positively stained area on single-plane images using Fiji-ImageJ.
# [2] = system: human PAs; test: Ex vivo culture of human PAs followed by uniaxial tensile test; conditions: 0.1% PGG
# Procedure: Uniaxial tensile test. Following harvesting, human PA samples were kept in normal saline on ice and assessed for biomechanics within 2-4 h. […] Loose connective and adipose tissue were carefully removed, and sample dimensions (length and width) were measured using a digital caliper. The circumferential tensile properties of PAs were assessed using a MyoDynamics Muscle Strip Myograph System (840DM, Danish Myo Technology, Hinnerup, Denmark) with controlled temperature (37° C.) and aeration. To this end, circumferential rectangular sections (2×8 mm) were excised from the pulmonary trunk and mounted at 5 mm length. […] From force-displacement curves, the following parameters were derived: stiffness of elastin (k1)- and collagen (k2)-enriched arterial material (calculated as the slopes of the toe- and linear regions, respectively), with stiffness (k, mN/mm) reflecting the resistance to deformation (ΔF/ΔL) generated by the respective material, and the strain at which the transition of load-bearing elements from elastin to collagen occurred (εTrans), defined based on force-displacement curve characteristics as the strain applied when F reached 100 mN.
# Effects of PGG on PA biomechanics. The effect of PGG on PA biomechanical properties was assessed by ex vivo culture of PA specimens followed by uniaxial tensile testing. […]
# [3] = concentrations similar to 0.1%; cited from earlier work
# [4] = system: rat AAA model; conditions: local application; cited from earlier work
structure (smiles),measurement,setting,value
"O=C(OC[C@H]1O[C@@H](OC(=O)c2cc(O)c(O)c(O)c2)[C@H](OC(=O)c2cc(O)c(O)c(O)c2)[C@@H](OC(=O)c2cc(O)c(O)c(O)c2)[C@@H]1OC(=O)c1cc(O)c(O)c(O)c1)c1cc(O)c(O)c(O)c1 [PGG, 1,2,3,4,6-Penta-O-galloyl-β-D-glucose]",Elastic fibers (EVG staining) after elastase treatment,"[1]; 0.1% PGG, 1 U porcine elastase for 24 h",partially preserved
same,Elastin content,[1]; naïve PAs and PAs treated with elastase,increased elastin content
same,εTrans in uniaxial tensile tests,[2]; elastase-treated PAs,increased
same,Load borne by elastic fibers,[2]; naïve PAs,increased the load borne by elastic fibers
same,Cytotoxicity,[3],minimal cytotoxicity
same,Aneurysmal expansion,[4],reduce
same,Elastic fiber degeneration,[4],effectively decrease
